Assay results reported in patent US20240174696A1, “2,8-DIAZASPIRO[4.5]DECANE COMPOUNDS” (Genentech, Inc., priority 2021, published 2024).

Legend:
[1] = tested on: TAZ nuclear translocation in SW1990 cells; experiment: TAZ Nuclear Translocation Assay; format: cell-based; details: Homo sapiens, 4 hours
Procedure, shortened: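 SW1990 cells in RPMI1640/10% FBS treated with compounds for 4 h at 37 °C, then fixed and immunostained for TAZ with Hoechst nuclear counterstain and imaged by high-content imaging. Read-out is the nuclear/cytoplasmic-ring fluorescence ratio, normalized to DMSO (0%) and an inhibitor control (100%); EC50 from four-parameter fit.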

[2] = biological target: Human LATS2 catalytic domain (Homo sapiens (Human), UniProt Q9NRM7); experiment: LATS2 High ATP HTRF Assay; format: biochemical; details: no asterisk: LATS2 High ATP HTRF Assay, 5000 μM ATP, 0.05 nM LATS2
Procedure, shortened: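 Phosphorylation of 0.5 μM STK S1 peptide at high ATP (5000 μM), 2 h at room temperature, by 0.05 nM LATS2 kinase domain/Mob1b complex after 10 min compound pre-incubation. Ki derived from HTRF-based IC50 (4-parameter logistic) by Cheng-Prusoff, ATP Km 105 μM.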

Human LATS2 catalytic domain, sequence (Q9NRM7 553-1088): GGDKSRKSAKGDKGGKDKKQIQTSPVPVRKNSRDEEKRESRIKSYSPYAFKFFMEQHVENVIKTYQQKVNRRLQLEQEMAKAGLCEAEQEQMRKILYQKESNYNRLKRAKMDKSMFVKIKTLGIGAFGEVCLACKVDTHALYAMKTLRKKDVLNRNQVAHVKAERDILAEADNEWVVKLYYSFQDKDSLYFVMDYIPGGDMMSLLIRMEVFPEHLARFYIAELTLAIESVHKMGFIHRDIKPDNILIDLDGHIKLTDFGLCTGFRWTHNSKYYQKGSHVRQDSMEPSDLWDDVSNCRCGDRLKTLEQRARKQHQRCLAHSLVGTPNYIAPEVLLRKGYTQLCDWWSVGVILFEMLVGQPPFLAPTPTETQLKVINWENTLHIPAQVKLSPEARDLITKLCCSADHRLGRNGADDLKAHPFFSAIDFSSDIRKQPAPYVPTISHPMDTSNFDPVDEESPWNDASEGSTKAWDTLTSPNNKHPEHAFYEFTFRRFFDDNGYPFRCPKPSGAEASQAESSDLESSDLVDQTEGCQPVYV
Human LATS2 catalytic domain, sequence (Q7L9L4 whole entry partner, the tested form may be a part): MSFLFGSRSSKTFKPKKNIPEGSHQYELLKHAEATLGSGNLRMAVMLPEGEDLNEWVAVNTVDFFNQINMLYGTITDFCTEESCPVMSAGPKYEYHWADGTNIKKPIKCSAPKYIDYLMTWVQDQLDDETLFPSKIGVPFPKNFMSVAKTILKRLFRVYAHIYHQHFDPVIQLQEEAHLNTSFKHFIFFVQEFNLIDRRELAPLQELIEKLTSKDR

With `CC(C)(O)CN1CCC2(CCN(c3nc(-c4ccncc4)nc4cncc(OC5COC5)c34)CC2)C1` [Compound 268, 2-Methyl-1-(8-(5-(oxetan-3-yloxy)-2-(pyridin-4-yl)pyrido[3,4-d]pyrimidin-4-yl)-2,8-diazaspiro[4.5]decan-2-yl)propan-2-o0] as the compound, how does the EC50 [1] read?
Its EC50 is 130 nM.

And the Ki [2]?
The Ki was 0.034 nM.

`CN1CCC2(CCN(c3nc(-c4ccncc4)nc4cncc(OC5COC5)c34)CC2)C1` [Compound 269, 4-(2-Methyl-2,8-diazaspiro[4.5]decan-8-yl)-5-(oxetan-3-yloxy)-2-(pyridin-4-yl)pyrido[3,4-d]pyrimidine] was tested. Which EC50 [1] did it give?
The EC50 was 210 nM.

What about the Ki [2] of the same compound?
The Ki was 0.034 nM.

How did the EC50 [1] turn out when `CN1CCC2(CCN(c3nc(-c4ccncc4)nc4cncc(OCC5COC5)c34)CC2)C1` [Compound 270, 4-(2-Methyl-2,8-diazaspiro[4.5]decan-8-yl)-5-(oxetan-3-ylmethoxy)-2-(pyridin-4-yl)pyrido[3,4-d]pyrimidine] was run?
The EC50 was 860 nM.

And the Ki [2]?
The Ki was 0.15 nM.

`C#CC(C)(O)CN1CCC2(CCN(c3nc(-c4ccncc4)nc4cnccc34)CC2)C1` (stereo not shown) [Compound 271, 2-methyl-1-(8-(2-(pyridin-4-yl)pyrido[3,4-d]pyrimidin-4-yl)-2,8-diazaspiro[4.5]decan-2-yl)but-3-yn-2-ol] was tested. Which EC50 [1] did it give?
Its EC50 is 330 nM.

What about the Ki [2] of the same compound?
The Ki was 0.041 nM.

For `Clc1nccc2c(N3CCC4(CCNC4)CC3)nc(-c3ccncc3)nc12` [Compound 272, 8-chloro-2-(pyridin-4-yl)-4-(2,8-diazaspiro[4.5]decan-8-yl)pyrido[3,4-d]pyrimidine trifluoro acetate], which EC50 [1] is on record?
The EC50 was 1100 nM.

What about the Ki [2] of the same compound?
Its Ki is 0.31 nM.

How did the EC50 [1] turn out when `COc1cncc2nc(-c3c[nH]nc3C)nc(N3CCC4(CCN(CC5COC5)C4)CC3)c12` [Compound 273, 5-methoxy-2-(3-methyl-1H-pyrazol-4-yl)-4-(2-(oxetan-3-ylmethyl)-2,8-diazaspiro[4.5]decan-8-yl)pyrido[3,4-d]pyrimidine] was run?
The EC50 was 260 nM.

What about the Ki [2] of the same compound?
The Ki was 0.043 nM.

`FC(F)Oc1cncc2nc(-c3ccncc3)nc(N3CCC4(CCNC4)CC3)c12` [Compound 274, 5-(difluoromethoxy)-2-(pyridin-4-yl)-4-(2,8-diazaspiro[4.5]decan-8-yl)pyrido[3,4-d]pyrimidine] was tested. Which EC50 [1] did it give?
The EC50 was 180 nM.

And the Ki [2]?
The Ki was 0.02 nM.

For `COc1cnc(Cl)c2nc(-c3ccncc3)nc(N3CCC4(CCN(C)C4)CC3)c12` [Compound 275, 8-chloro-5-methoxy-4-(2-methyl-2,8-diazaspiro[4.5]decan-8-yl)-2-(pyridin-4-yl)pyrido[3,4-d]pyrimidine], which EC50 [1] is on record?
The EC50 was 310 nM.

And the Ki [2]?
The Ki was 0.02 nM.

Which EC50 [1] does the source give for `COCC1CC2(CCN(c3nc(-c4ccncc4)nc4cncc(OC)c34)CC2)CN1` (stereo not shown) [Compound 276, 5-methoxy-4-(3-(methoxymethyl)-2,8-diazaspiro[4.5]decan-8-yl)-2-(pyridin-4-yl)pyrido[3,4-d]pyrimidine] here?
Its EC50 is 410 nM.

And the Ki [2]?
The Ki was 0.19 nM.

`CN1CCC2(CCN(c3nc(-c4ccncc4)nc4cncc(OC5CC(C#N)C5)c34)CC2)C1` (stereo not shown) [Compound 277, 3-((4-(2-Methyl-2,8-diazaspiro[4.5]decan-8-yl)-2-(pyridin-4-yl)pyrido[3,4-d]pyrimidin-5-yl)oxy)cyclobutane-1-carbonitrile] was tested. Which EC50 [1] did it give?
The EC50 was 290 nM.

And the Ki [2]?
Its Ki is 0.11 nM.

For `COc1cncc2nc(-c3ccncc3)nc(N3CCC4(CCNC4=O)CC3)c12` [Compound 279, 8-(5-methoxy-2-(pyridin-4-yl)pyrido[3,4-d]pyrimidin-4-yl)-2,8-diazaspiro[4.5]decan-1-one], which EC50 [1] is on record?
Its EC50 is 5300 nM.

What about the Ki [2] of the same compound?
Its Ki is 4.5 nM.

Which results are given for `COc1cncc2nc(-c3ccncc3)nc(N3CCC4(CCN(CC(F)F)C4)CC3)c12` [Compound 280, 4-(2-(2,2-difluoroethyl)-2,8-diazaspiro[4.5]decan-8-yl)-5-methoxy-2-(pyridin-4-yl)pyrido[3,4-d]pyrimidine]?
EC50 [1]: 570 nM; Ki [2]: 0.039 nM

With `c1cc(-c2cc3cnccc3c(N3CCC4(CCNC4)CC3)n2)ccn1` [Example 199, 3-(Pyridin-4-yl)-1-(2,8-diazaspiro[4.5]decan-8-yl)-2,6-naphthyridine] as the compound, how does the EC50 [1] read?
Its EC50 is 6100 nM.

What about the Ki [2] of the same compound?
Its Ki is 3.3 nM.

What does the source list for `CCc1cncc2nc(-c3ccncc3)nc(N3CCC4(CCNC4)CC3)c12` [Example 204, 5-Ethyl-2-(pyridin-4-yl)-4-(2,8-diazaspiro[4.5]decan-8-yl)pyrido[3,4-d]pyrimidine]?
EC50 [1]: 1000 nM; Ki [2]: 1.1 nM

Which results are given for `OC1(CN2CCC3(CCN(c4nc(-c5ccncc5)nc5cnccc45)CC3)C2)CCC1` [Example 205, 1-((8-(2-(Pyridin-4-yl)pyrido[3,4-d]pyrimidin-4-yl)-2,8-diazaspiro[4.5]decan-2-yl)methyl)cyclobutan-1-ol]?
EC50 [1]: 170 nM; Ki [2]: 0.23 nM

Which results are given for `OCC1CC2(CCN(c3nc(-c4ccncc4)nc4cnccc34)CC2)CN1C1CCCC1` (stereo not shown) [Example 206, (2-cyclopentyl-8-(2-(pyridin-4-yl)pyrido[3,4-d]pyrimidin-4-yl)-2,8-diazaspiro[4.5]decan-3-yl)methanol]?
EC50 [1]: 170 nM; Ki [2]: 0.1 nM

Which EC50 [1] does the source give for `OC1(CN2CCC3(CCN(c4nc(-c5ccncc5)nc5cnccc45)CC3)C2)COC1` [Example 211, 3-((8-(2-(Pyridin-4-yl)pyrido[3,4-d]pyrimidin-4-yl)-2,8-diazaspiro[4.5]decan-2-yl)methyl)oxetan-3-ol] here?
The EC50 was 420 nM.

And the Ki [2]?
The Ki was 0.11 nM.

With `FC(F)c1[nH]ncc1-c1nc(N2CCC3(CCNC3)CC2)c2ccncc2n1` [Example 213, 2-(5-(difluoromethyl)-1H-pyrazol-4-yl)-4-(2,8-diazaspiro[4.5]decan-8-yl)pyrido[3,4-d]pyrimidine] as the compound, how does the EC50 [1] read?
Its EC50 is > 10000 nM.

And the Ki [2]?
Its Ki is 0.6 nM.

For `CNc1cc2c(N3CCC4(CCN(C)C4)CC3)nc(-c3ccncc3)nc2cn1` [Example 214, N-methyl-4-(2-methyl-2,8-diazaspiro[4.5]decan-8-yl)-2-(pyridin-4-yl)pyrido[3,4-d]pyrimidin-6-amine], which EC50 [1] is on record?
The EC50 was 850 nM.

And the Ki [2]?
The Ki was 10 nM.

`CN(C)S(=O)(=O)CCN1CCC2(CCN(c3nc(-c4ccncc4)nc4cnccc34)CC2)C1` [Example 215, N,N-dimethyl-2-(8-(2-(pyridin-4-yl)pyrido[3,4-d]pyrimidin-4-yl)-2,8-diazaspiro[4.5]decan-2-yl)ethanesulfonamide] was tested. Which EC50 [1] did it give?
The EC50 was 1500 nM.

What about the Ki [2] of the same compound?
Its Ki is 1.2 nM.

What does the source list for `Cc1n[nH]cc1-c1nc(N2CCC3(CCN(CCF)C3)CC2)c2ccncc2n1` [Example 219, 4-(2-(2-fluoroethyl)-2,8-diazaspiro[4.5]decan-8-yl)-2-(3-methyl-1H-pyrazol-4-yl)pyrido[3,4-d]pyrimidine]?
EC50 [1]: 460 nM; Ki [2]: 0.067 nM

With `Cc1[nH]ncc1-c1nc(N2CCC3(CCN(CC(F)F)C3)CC2)c2ccncc2n1` [Example 220, 4-(2-(2,2-difluoroethyl)-2,8-diazaspiro[4.5]decan-8-yl)-2-(3-methyl-1H-pyrazol-4-yl)pyrido[3,4-d]pyrimidine] as the compound, how does the EC50 [1] read?
The EC50 was 660 nM.

And the Ki [2]?
Its Ki is 0.074 nM.

For `FC1(F)CNCC12CCN(c1nc(-c3ccncc3)nc3cnccc13)CC2` [Example 223, 4-(4,4-difluoro-2,8-diazaspiro[4.5]decan-8-yl)-2-(pyridin-4-yl)pyrido[3,4-d]pyrimidine], which EC50 [1] is on record?
Its EC50 is > 10000 nM.

What about the Ki [2] of the same compound?
The Ki was 2.7 nM.

For `CS(=O)(=O)NCC1CC2(CCN(c3nc(-c4ccncc4)nc4cnccc34)CC2)CN1` (stereo not shown) [Example 224, N-((8-(2-(pyridin-4-yl)pyrido[3,4-d]pyrimidin-4-yl)-2,8-diazaspiro[4.5]decan-3-yl)methyl)methanesulfonamide], which EC50 [1] is on record?
The EC50 was 8900 nM.

What about the Ki [2] of the same compound?
The Ki was 0.16 nM.

With `Brc1cncc2nc(-c3ccncc3)nc(N3CCC4(CCNC4)CC3)c12` [Example 225, 5-Bromo-2-(pyridin-4-yl)-4-(2,8-diazaspiro[4.5]decan-8-yl)pyrido[3,4-d]pyrimidine] as the compound, how does the EC50 [1] read?
Its EC50 is 1800 nM.

And the Ki [2]?
The Ki was 2.1 nM.

What does the source list for `Cc1n[nH]cc1-c1nc(N2CCC3(CCN(C)C3)CC2)c2cc(Cc3ccccc3)ncc2n1` [Example 226, 6-benzyl-2-(3-methyl-1H-pyrazol-4-yl)-4-(2-methyl-2,8-diazaspiro[4.5]decan-8-yl)pyrido[3,4-d]pyrimidine]?
EC50 [1]: 130 nM; Ki [2]: 0.016 nM

Which results are given for `Cc1n[nH]cc1-c1nc(N2CCC3(CCN(C)C3)CC2)c2cc(Cc3cccnc3)ncc2n1` [Example 227, 2-(3-methyl-1H-pyrazol-4-yl)-4-(2-methyl-2,8-diazaspiro[4.5]decan-8-yl)-6-(pyridin-3-ylmethyl)pyrido[3,4-d]pyrimidine]?
EC50 [1]: 2300 nM; Ki [2]: 0.086 nM

With `Cc1n[nH]cc1-c1nc(N2CCC3(CCNC3)CC2)c2ccnc(Cl)c2n1` [Example 232, 8-chloro-2-(3-methyl-1H-pyrazol-4-yl)-4-(2,8-diazaspiro[4.5]decan-8-yl)pyrido[3,4-d]pyrimidine] as the compound, how does the EC50 [1] read?
Its EC50 is 4300 nM.

What about the Ki [2] of the same compound?
Its Ki is 0.061 nM.

Which EC50 [1] does the source give for `COc1cncc2nc(-c3ccncc3)nc(N3CCC4(CCNC4)CC3)c12` [Example 233, 5-Methoxy-2-(pyridin-4-yl)-4-(2,8-diazaspiro[4.5]decan-8-yl)pyrido[3,4-d]pyrimidine] here?
The EC50 was 260 nM.

And the Ki [2]?
The Ki was 0.028 nM.

How did the EC50 [1] turn out when `F[C@@H]1CNCC12CCN(c1nc(-c3ccncc3)nc3cnccc13)CC2` [Example 234, (S)-4-(4-fluoro-2,8-diazaspiro[4.5]decan-8-yl)-2-(pyridin-4-yl)pyrido[3,4-d]pyrimidine] was run?
Its EC50 is 4200 nM.

What about the Ki [2] of the same compound?
The Ki was 4.5 nM.

For `F[C@H]1CNCC12CCN(c1nc(-c3ccncc3)nc3cnccc13)CC2` [Example 235, (R)-4-(4-fluoro-2,8-diazaspiro[4.5]decan-8-yl)-2-(pyridin-4-yl)pyrido[3,4-d]pyrimidine], which EC50 [1] is on record?
The EC50 was 1800 nM.

And the Ki [2]?
The Ki was 1.3 nM.

What does the source list for `Cc1n[nH]cc1-c1nc(N2CCC3(CCN(C)C3)CC2)c2cc(Cc3ccncc3)ncc2n1` [Example 236, 2-(3-methyl-1H-pyrazol-4-yl)-4-(2-methyl-2,8-diazaspiro[4.5]decan-8-yl)-6-(pyridin-4-ylmethyl)pyrido[3,4-d]pyrimidine]?
EC50 [1]: 1200 nM; Ki [2]: 0.49 nM
